Data as given in patent publication US8952024B2, “Herbicidal pyrimidone derivatives” (E I du Pont de Nemours and Company, priority 2009, dated 2015).

Assays:
Assay type in all cases: in vivo
[1] = test system: windgrass (Apera spica-venti); test: Test B postemergence plant response; conditions: for Plant response rating, Windgrass: Postemergence
Outline: (§1)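 Visual ratings from 0 (no effect) to 100 (complete control), made against controls 13–15 days after treatment, kept in a greenhouse. Compounds were applied postemergence to potted plants at the 1- to 4-leaf stage (2–18 cm).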

[2] = test system: chickweed (Stellaria media); test: Test B postemergence plant response; conditions: for Plant response rating, Chickweed: Postemergence
Outline: as §1

[3] = test system: winter barley (Hordeum vulgare); test: Test B postemergence plant response; conditions: for Plant response rating, Barley: Postemergence
Outline: as §1

[4] = test system: canarygrass (Phalaris minor); test: Test B postemergence plant response; conditions: for Plant response rating, Canarygrass: Postemergence
Outline: as §1

rice (Oryza sativa) = test: Test B flooded paddy test; conditions: for Plant response rating, Flood, Rice: 250 g ai/ha, flooded paddy test, visual rating on 0 to 100 scale (0 no effect, 100 complete control) after 13 to 15 days; for Plant response rating, Rice: Flood (flooded paddy test), 13 to 15 days; for Rice plant response rating: Flood, 31 g ai/ha, scale 0 to 100 (0 no effect, 100 complete control)
Outline: (§2)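 Plants were grown to the 2-leaf stage, then pots were flooded to 3 cm above the soil and compounds were applied directly into the paddy water. That depth was held throughout. After 13 to 15 days in a greenhouse, injury was visually rated against controls on a 0–100 scale.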

[5] = test system: umbrella sedge (Cyperus difformis); test: Test B flooded paddy test; conditions: for Plant response rating, Flood, Sedge, Umbrella: 250 g ai/ha, flooded paddy test, visual rating on 0 to 100 scale (0 no effect, 100 complete control) after 13 to 15 days; for Plant response rating, Sedge, Umbrella: Flood (flooded paddy test), 13 to 15 days; for Sedge, Umbrella plant response rating: Flood, 31 g ai/ha, scale 0 to 100 (0 no effect, 100 complete control)
Outline: as §2

[6] = test system: ducksalad (Heteranthera limosa); test: Test B flooded paddy test; conditions: for Plant response rating, Flood, Ducksalad: 250 g ai/ha, flooded paddy test, visual rating on 0 to 100 scale (0 no effect, 100 complete control) after 13 to 15 days; for Plant response rating, Ducksalad: Flood (flooded paddy test), 13 to 15 days; for Ducksalad plant response rating: Flood, 31 g ai/ha, scale 0 to 100 (0 no effect, 100 complete control)
Outline: as §2

[7] = test system: barnyardgrass (Echinochloa crus-galli); test: Test B flooded paddy test; conditions: for Plant response rating, Flood, Barnyardgrass: 250 g ai/ha, flooded paddy test, visual rating on 0 to 100 scale (0 no effect, 100 complete control) after 13 to 15 days; for Plant response rating, Barnyardgrass: Flood (flooded paddy test), 13 to 15 days; for Barnyardgrass plant response rating: Flood, 31 g ai/ha, scale 0 to 100 (0 no effect, 100 complete control)
Outline: as §2

[8] = test system: ragweed (common ragweed, Ambrosia elatior); test: Test B pre-/postemergence plant response; conditions: for Plant response rating, Ragweed: Postemergence
Outline: (§3)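 Pre-em in loam/sand; post-em at 1–4 leaf (2–18 cm) in peat mix. Solvent + surfactant formulation. Greenhouse 13–15 d; visual % control vs untreated, 0–100.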

[9] = test system: Italian ryegrass (Lolium multiflorum); test: Test B pre-/postemergence plant response; conditions: for Plant response rating, Ryegrass, Italian: Postemergence
Outline: as §3

[10] = test system: giant foxtail (Setaria faberii); test: Test B pre-/postemergence plant response; conditions: for Plant response rating, Foxtail, Giant: Postemergence
Outline: as §3

[11] = 31 g ai/ha, 0 to 100 scale (0 no effect, 100 complete control)
[12] = 250 g ai/ha, scale 0 to 100 (0 no effect, 100 complete control), 13 to 15 days
[13] = 62 g ai/ha, scale 0 to 100 (0 no effect, 100 complete control)
[14] = 125 g ai/ha, scale 0 to 100 (0 no effect, 100 complete control)
[15] = 62 g ai/ha, scale of 0 to 100 where 0 is no effect and 100 is complete control
[16] = 125 g ai/ha, scale 0 to 100, 0 is no effect, 100 is complete control
[17] = 62 g ai/ha, postemergence, 0 is no effect, 100 is complete control, 13 to 15 days

CCCn1c(-c2ccccc2)ncc(C(=O)C2=C(O)C3CCC(C3)C2=O)c1=O (stereo not shown) [Compound 226]
Plant response rating, Windgrass [1, 11]: 10 | Plant response rating, Windgrass [1, 12]: 85 | Plant response rating, Windgrass [1, 13]: 50 | Plant response rating, Chickweed [2, 11]: 75 | Plant response rating, Chickweed [2, 14]: 85 | Plant response rating, Chickweed [2, 12]: 95 | Plant response rating, Chickweed [2, 13]: 75 | Plant response rating, Barley [3, 11]: 10 | Plant response rating, Barley [3, 14]: 30 | Plant response rating, Barley [3, 12]: 60 | Plant response rating, Barley [3, 13]: 30 | Plant response rating, Canarygrass [4, 11]: 5 | Plant response rating, Canarygrass [4, 14]: 50 | Plant response rating, Canarygrass [4, 12]: 60 | Plant response rating, Canarygrass [4, 13]: 30 | Plant response rating, Flood, Rice (rice (Oryza sativa)): 65 | Plant response rating, Rice (rice (Oryza sativa); [15]): 40 | Plant response rating, Rice (rice (Oryza sativa); [16]): 60 | Rice plant response rating (rice (Oryza sativa)): 20 | Plant response rating, Flood, Sedge, Umbrella [5]: 60 | Plant response rating, Sedge, Umbrella [5, 15]: 40 | Plant response rating, Sedge, Umbrella [5, 16]: 50 | Sedge, Umbrella plant response rating [5]: 30 | Plant response rating, Flood, Ducksalad [6]: 40 | Plant response rating, Ducksalad [6, 15]: 0 | Plant response rating, Ducksalad [6, 16]: 30 | Ducksalad plant response rating [6]: 0 | Plant response rating, Flood, Barnyardgrass [7]: 95 | Plant response rating, Barnyardgrass [7, 15]: 60 | Plant response rating, Barnyardgrass [7, 16]: 95 | Barnyardgrass plant response rating [7]: 50 | Plant response rating, Ragweed [8, 11]: 80 | Plant response rating, Ragweed [8, 12]: 90 | Plant response rating, Ragweed [8, 13]: 85 | Plant response rating, Ryegrass, Italian [9, 11]: 0 | Plant response rating, Ryegrass, Italian [9, 12]: 20 | Plant response rating, Ryegrass, Italian [9, 13]: 0 | Plant response rating, Foxtail, Giant [10, 11]: 85 | Plant response rating, Foxtail, Giant [10, 14]: 95 | Plant response rating, Foxtail, Giant [10, 12]: 95 | Plant response rating, Foxtail, Giant [10, 13]: 90

O=C1CCCC(O)=C1C(=O)c1cnc(-c2ccccc2)n(C2CCCCCC2)c1=O [Compound 130]
Windgrass plant response rating (0 to 100 scale) [1, 17]: 65 | Plant response rating, Windgrass [1, 11]: 60 | Plant response rating, Windgrass [1, 14]: 75 | Plant response rating, Windgrass [1, 12]: 85 | Chickweed plant response rating (0 to 100 scale) [2, 17]: 98 | Plant response rating, Chickweed [2, 11]: 98 | Plant response rating, Chickweed [2, 14]: 100 | Plant response rating, Chickweed [2, 12]: 100 | Barley plant response rating (0 to 100 scale) [3, 17]: 0 | Plant response rating, Barley [3, 11]: 0 | Plant response rating, Barley [3, 14]: 0 | Plant response rating, Barley [3, 12]: 0 | Canarygrass plant response rating (0 to 100 scale) [4, 17]: 20 | Plant response rating, Canarygrass [4, 11]: 5 | Plant response rating, Canarygrass [4, 14]: 20 | Plant response rating, Canarygrass [4, 12]: 25 | Plant response rating, Flood, Rice (rice (Oryza sativa)): 25 | Plant response rating, Rice (rice (Oryza sativa); [15]): 0 | Plant response rating, Rice (rice (Oryza sativa); [16]): 0 | Rice plant response rating (rice (Oryza sativa)): 0 | Plant response rating, Flood, Sedge, Umbrella [5]: 100 | Plant response rating, Sedge, Umbrella [5, 15]: 60 | Plant response rating, Sedge, Umbrella [5, 16]: 75 | Sedge, Umbrella plant response rating [5]: 40 | Plant response rating, Flood, Ducksalad [6]: 100 | Plant response rating, Ducksalad [6, 15]: 80 | Plant response rating, Ducksalad [6, 16]: 80 | Ducksalad plant response rating [6]: 60 | Plant response rating, Flood, Barnyardgrass [7]: 85 | Plant response rating, Barnyardgrass [7, 15]: 0 | Plant response rating, Barnyardgrass [7, 16]: 0 | Barnyardgrass plant response rating [7]: 0 | Ragweed plant response rating (0 to 100 scale) [8, 17]: 90 | Plant response rating, Ragweed [8, 11]: 85 | Plant response rating, Ragweed [8, 14]: 98 | Plant response rating, Ragweed [8, 12]: 98 | Ryegrass, Italian plant response rating (0 to 100 scale) [9, 17]: 0 | Plant response rating, Ryegrass, Italian [9, 11]: 0 | Plant response rating, Ryegrass, Italian [9, 14]: 0 | Plant response rating, Ryegrass, Italian [9, 12]: 5 | Foxtail, Giant plant response rating (0 to 100 scale) [10, 17]: 90 | Plant response rating, Foxtail, Giant [10, 11]: 90 | Plant response rating, Foxtail, Giant [10, 14]: 98 | Plant response rating, Foxtail, Giant [10, 12]: 98
